Read-outs that look alike come from different tables or passages of the source.
Test system: TGFβ signal
Experiment: TGFβ signal inhibitory activity, (SBE)4-Luc reporter in A549 cells (Test Examples 1A and 1B)
Format: cell-based, human
Conditions: Homo sapiens, A549, read-out: TGFβ inhibition rate, %; for inhibition at 1 µM: test compound 1 µM
Method in brief: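 Stable A549 line carrying (SBE)4-Luc Smad3-binding reporter treated with compound plus TGFβ-1 (2 ng/ml) for 4 hr; luciferase read by chemiluminescence. Percent inhibition relative to TGFβ-only and untreated cells, tested at 3 µM and 10 µM, some also at 1 µM.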

[1] = test compound 3 µM, TGFβ-1 2 ng/ml, 4 hr, Table 1A
[2] = test compound 10 µM, TGFβ-1 2 ng/ml, 4 hr, Table 1A
[3] = 3 µM, compounds of Reference Examples (Test Example 1B)
[4] = 10 µM, compounds of Reference Examples (Test Example 1B)
[5] = test compound 3 µM, Reference Examples, Table 1B
[6] = test compound 10 µM, Reference Examples, Table 1B

SMILES: Cc1cc(Oc2ccnc3ccc(-c4csc5ccccc45)cc23)c(-c2ccccn2)nc1C [Compound 164, 3-(6-Benzo[b]thiophen-3-yl-quinolin-4-yloxy)-5,6-dimethyl-[2,2']bipyridine]
- inhibition at 3 µM [1]: 75%
- inhibition at 10 µM [2]: 100%

SMILES: Cc1cc(Oc2ccnc3cc(-c4cc5ccccc5o4)ccc23)c(-c2ccccn2)nc1C [Compound 173, 3-(7-Benzofuran-2-yl-quinolin-4-yloxy)-5,6-dimethyl-[2,2']bipyridine]
- inhibition at 3 µM [1]: 57%
- inhibition at 10 µM [2]: 92%

SMILES: Cc1cc(Oc2ncnc3scc(C)c23)c(-c2ccccn2)nc1C [Compound 34, 5,6-Dimethyl-3-(5-methyl-thieno[2,3-d]pyrimidin-4-yloxy)-[2,2'] bipyridine]
- inhibition at 3 µM [1]: 94%
- inhibition at 10 µM [2]: 100%

SMILES: COC(=O)c1cc2c(Oc3cc4cccnc4nc3-c3ccccc3)ccnc2cc1OC [Compound 63, Methyl 7-methoxy-4-(2-phenyl-[1,8]naphthyridin-3-yloxy)-quinoline-6-carboxylate]
- inhibition at 3 µM [1]: 99%
- inhibition at 10 µM [2]: 100%

SMILES: Cc1cc(Oc2ccnc3ccccc23)c(-c2ccccn2)nc1C [Compound 1, 5,6-Dimethyl-3-(quinolin-4-yloxy)-[2,2']bipyridine]
- inhibition at 3 µM [1]: 100%
- inhibition at 10 µM [2]: 100%

SMILES: COc1cc2nccc(Oc3ccc(Cl)nc3)c2cc1OC [r206]
- inhibition at 3 µM [3]: 69%
- inhibition at 10 µM [4]: 94%

SMILES: COc1cc2c(Oc3cc(C)c(C)nc3-c3cccc(C)n3)ccnc2cc1OCC1CO1 (stereo not drawn) [Compound r446]
- inhibition at 3 µM [3]: 35%
- inhibition at 10 µM [4]: 89%

SMILES: CCN(C)CCOc1ccc2nccc(Oc3ccc(C)nc3-c3ncccn3)c2c1 [Compound 223, ethyl-methyl-{2-[4-(6-methyl-2-pyrimidin-2-yl-pyridin-3-yloxy)-quinolin-6-yloxy]-ethyl}-amine]
- inhibition at 3 µM [1]: 52%
- inhibition at 10 µM [2]: 90%

SMILES: COc1cc2nccc(Oc3cc4cccnc4nc3-c3ccc(C#N)cc3)c2cc1OC [Compound 86, 4-[3-(6,7-Dimethoxy-quinolin-4-yloxy)-[1,8]naphthyridin-2-yl]-benzonitrile]
- inhibition at 3 µM [1]: 26%
- inhibition at 10 µM [2]: 74%

SMILES: COc1cc2c(Oc3cc4ccccc4nc3C)ccnc2cc1OC[C@H](O)CO [Compound r386]
- inhibition at 3 µM [3]: 99%

SMILES: COc1cc2c(Oc3cc(C)c(C)nc3-c3nc(C)c(C)s3)ccnc2cc1O [Compound r455]
- inhibition at 3 µM [3]: 76%
- inhibition at 10 µM [4]: 99%

SMILES: COc1cc2c(Oc3cc4cccnc4nc3C)ccnc2cc1OCC(O)CO (stereo not drawn) [Compound r403]
- inhibition at 3 µM [3]: 27%
- inhibition at 10 µM [4]: 66%

SMILES: COc1cc2nccc(Oc3ccc(C)nc3-c3cccc(C)n3)c2cc1OC [Compound r264]
- inhibition at 3 µM [3]: 88%
- inhibition at 10 µM [4]: 100%

SMILES: COc1cc2nccc(Oc3cnc4ccccc4c3)c2cc1OC [r275]
- inhibition at 3 µM [3]: 45%
- inhibition at 10 µM [4]: 90%

SMILES: COc1cc2c(Oc3cc(C)c(C)nc3-c3ccccn3)ccnc2cc1OCC(CO)CO [Compound r343]
- inhibition at 3 µM [3]: 93%

SMILES: COc1cc2nccc(Oc3ccc(C)cc3Br)c2cc1OC [Compound r4]
- inhibition at 3 µM [5]: 20%
- inhibition at 10 µM [6]: 78%

SMILES: CCCOC(=O)c1ccccc1Oc1ccnc2cc(OC)c(OC)cc12 [Compound r94]
- inhibition at 3 µM [5]: 39%
- inhibition at 10 µM [6]: 97%

SMILES: COc1cc2nccc(Oc3cc4cccnc4nc3-c3ccccn3)c2cc1OC [r421]
- inhibition at 3 µM [3]: 94%
- inhibition at 10 µM [4]: 100%

SMILES: COc1cc2nccc(Oc3cccnc3C)c2cc1OC [r202]
- inhibition at 3 µM [3]: 20%
- inhibition at 10 µM [4]: 54%

SMILES: COc1cc2c(Oc3ccc(C)cc3C(=O)c3ccccc3)ccnc2cc1OCC(O)CNCCO (stereo not drawn) [Compound r152]
- inhibition at 3 µM [5]: 99%
- inhibition at 10 µM [6]: 100%

SMILES: CCOC(=O)/C=C/c1cc2nccc(Oc3cc4ccccc4nc3C)c2cc1OC [Compound r413]
- inhibition at 3 µM [3]: 31%
- inhibition at 10 µM [4]: 76%

SMILES: COc1cncc(-c2nc(C)c(C)cc2Oc2ccnc3cc(OC)c(OC)cc23)c1 [Compound 45, 3-(6,7-Dimethoxy-quinolin-4-yloxy)-5'-methoxy-5,6-dimethyl-[2,3']bipyridine]
- inhibition at 3 µM [1]: 89%
- inhibition at 10 µM [2]: 100%

SMILES: CCOC(=O)c1cc(C)ccc1Oc1ccnc2cc(OC)c(OC)cc12 [Compound r87]
- inhibition at 3 µM [5]: 84%
- inhibition at 10 µM [6]: 99%

SMILES: COc1cc(Oc2ccnc3cc(OC)c(OC)cc23)c(C(C)=O)cc1OC [Compound r39]
- inhibition at 3 µM [5]: 0%
- inhibition at 10 µM [6]: 91%

SMILES: COc1cc2nccc(Oc3ccc4ccccc4c3)c2cc1OC [Compound r17]
- inhibition at 3 µM [5]: 15%
- inhibition at 10 µM [6]: 80%

SMILES: CCOC(=O)c1cc(F)ccc1Sc1ccnc2cc(OC)c(OC)cc12 [Compound r419]
- inhibition at 3 µM [3]: 7%
- inhibition at 10 µM [4]: 67%

SMILES: COc1cc2c(Oc3cc(C)c(C)nc3-c3cccnc3)ccnc2cc1OCCCCO [Compound r444]
- inhibition at 3 µM [3]: 100%

SMILES: COC(=O)c1ccc2c(Oc3cc4cccnc4nc3-c3ccccc3)ccnc2c1 [Compound 113, Methyl 4-(2-Phenyl-[1,8]naphthyridin-3-yloxy)-quinoline-7-carboxarlate]
- inhibition at 3 µM [1]: 95%
- inhibition at 10 µM [2]: 100%

SMILES: CCCOC(=O)c1cc(-c2ccc(F)cc2F)ccc1Oc1ccnc2cc(OC)c(OC)cc12 [Compound r96]
- inhibition at 3 µM [5]: 19%
- inhibition at 10 µM [6]: 65%

SMILES: COc1cc2nccc(Oc3cc(C)c(C)nc3-c3ncccn3)c2cc1OC [r274]
- inhibition at 3 µM [3]: 97%

SMILES: COc1cc2nccc(Oc3ccc(C)nc3-c3cccc(O)c3)c2cc1OC [Compound r237]
- inhibition at 3 µM [3]: 100%
- inhibition at 10 µM [4]: 100%

SMILES: Cc1cc(Oc2ccnc3ccsc23)c(-c2ccccn2)nc1C [Compound 28, 5,6-Dimethyl-3-(thieno[3,2-b]pyridin-7-yloxy)-[2,2']bipyridine]
- inhibition at 1 µM (TGFβ-1 2 ng/ml, 4 hr, Table 1A): 96%
- inhibition at 3 µM [1]: 100%

SMILES: COc1cc2nccc(Oc3cc4cccnc4nc3-c3ccccc3)c2cc1F [Compound 59, 3-(6-Fluoro-7-methoxy-quinolin-4-yloxy)-2-phenyl-[1,8]naphthyridine]
- inhibition at 1 µM (TGFβ-1 2 ng/ml, 4 hr, Table 1A): 93%

SMILES: COc1cc2nccc(Oc3ccc4ncsc4c3-c3ccccc3)c2cc1OC [Compound r295]
- inhibition at 3 µM [3]: 47%
- inhibition at 10 µM [4]: 96%

SMILES: COc1cc2nccc(Oc3cc4ccccc4cc3C(C)=O)c2cc1OC [Compound r200, 1-[3-(6,7-Dimethoxy-quinolin-4-yloxy)-naphthalene-2-yl]-ethanone]
- inhibition at 3 µM [3]: 94%
- inhibition at 10 µM [4]: 100%

SMILES: COc1cc2nccc(Oc3ccc(C)nc3-c3ccc(Oc4ccccc4)cc3)c2cc1OC [Compound r250]
- inhibition at 3 µM [3]: 34%
- inhibition at 10 µM [4]: 81%

SMILES: COc1cc2nccc(Oc3cc4ccccc4nc3-c3ccccc3)c2cc1OC [Compound r283, 6,7-Dimethoxy-4-(2-phenyl-quinolin-3-yloxy)-quinoline]
- inhibition at 3 µM [3]: 99%
- inhibition at 10 µM [4]: 100%

SMILES: COc1cc2c(Oc3cc4ccccc4nc3C(C)=O)ccnc2cc1OCCCO [Compound r456]
- inhibition at 3 µM [3]: 99%
- inhibition at 10 µM [4]: 100%

SMILES: COc1cc2c(Oc3cc4ccccc4nc3C)ccnc2cc1OCc1ccccc1 [Compound r351, 7-Benzyloxy-6-methoxy-4-(2-methyl-quinolin-3-yloxy)-quinoline]
- inhibition at 3 µM [3]: 42%
- inhibition at 10 µM [4]: 90%

SMILES: COc1cc2c(Oc3cc4ccccc4nc3C)ccnc2cc1OCC(N)=O [Compound r370]
- inhibition at 3 µM [3]: 85%
- inhibition at 10 µM [4]: 99%

SMILES: Cc1ccc(-c2nc(C)c(C)cc2Oc2ccnc3ccccc23)nc1 [Compound r431]
- inhibition at 3 µM [3]: 97%
- inhibition at 10 µM [4]: 99%

SMILES: COc1cc2c(Oc3cc4cccnc4nc3C)ccnc2cc1OCCO [Compound r400]
- inhibition at 3 µM [3]: 82%
- inhibition at 10 µM [4]: 100%

SMILES: COc1ccc2ncnc(Oc3cc4cccnc4nc3-c3ccccc3)c2c1 [Compound 70, 6-Methoxy-4-(2-phenyl-[1,8]naphthyridin-3-yloxy)-quinazoline]
- inhibition at 3 µM [1]: 61%
- inhibition at 10 µM [2]: 95%

SMILES: COc1cc2nccc(Oc3ccc(C)cc3C(=O)C(C)C)c2cc1OC [Compound r53]
- inhibition at 3 µM [5]: 97%
- inhibition at 10 µM [6]: 100%

SMILES: COc1cc2nccc(Oc3ccccc3C(=O)OCCC(C)C)c2cc1OC [Compound r99]
- inhibition at 3 µM [5]: 7%
- inhibition at 10 µM [6]: 92%

SMILES: COc1cc2c(Oc3cc(C)c(C)nc3-c3ccccn3)ccnc2cc1F [Compound 104, 3-(7-Fluoro-6-methoxy-quinolin-4-yloxy)-5,6-dimethyl-[2,2']bipyridine]
- inhibition at 3 µM [1]: 99%
- inhibition at 10 µM [2]: 100%

SMILES: COc1cccc(-c2nc3ncccc3cc2Oc2ccnc3cc(OC)c(OC)cc23)c1 [Compound 81, 3-(6,7-Dimethoxy-quinolin-4-yloxy)-2-(3-methoxy-phenyl)-[1,8] naphthyridine]
- inhibition at 3 µM [1]: 97%
- inhibition at 10 µM [2]: 100%

SMILES: Brc1ccc(-c2nc3ncccc3cc2Oc2ccnc3ccccc23)cc1 [Compound 82, 2-(4-Bromo-phenyl)-3-(quinolin-4-yloxy)-[1,8]naphthyridine]
- inhibition at 3 µM [1]: 25%
- inhibition at 10 µM [2]: 67%

SMILES: Cc1ccc(Oc2ccnc3ccc(OCC4CCC4)cc23)c(-c2ncccn2)n1 [Compound 213, 6-Cyclobutylmethoxy-4-(6-methyl-2-pyrimidin-2-yl-pyridin-3-yloxy)-quinoline]
- inhibition at 3 µM [1]: 98%

SMILES: CCC(=O)c1cc(Cl)ccc1Oc1ccnc2cc(OC)c(OC)cc12 [r46]
- inhibition at 3 µM [5]: 70%
- inhibition at 10 µM [6]: 100%

SMILES: COc1cc2nccc(Oc3ccc(C)cc3C(=O)c3ccc(OCCN4CCOCC4)cc3)c2cc1OC [Compound r191]
- inhibition at 3 µM [3]: 39%
- inhibition at 10 µM [4]: 93%

From patent publication EP1724268A1, “COMPOUND HAVING TGF-BETA INHIBITORY ACTIVITY AND PHARMACEUTICAL COMPOSITION CONTAINING SAME” (KIRIN BEER KABUSHIKI KAISHA, priority 2004, dated 2005)
